Test results published in patent US12035716B2, “Treatment for seeds disinfection” (VILMORIN & CIE, priority 2013, dated 2024).
Like-named read-outs stand apart in the source and are kept apart here.

Experiments:
[1] = tested on: Clavibacter michiganensis subsp. michiganensis; test: Disinfection of tomato seeds naturally infected by CMM; ISF detection method; type: in vivo; settings: 1% Ca(ClO)2
Description: (§1) Tomato seeds have been obtained from commercial seed lot naturally infected by CMM in the production field. Vacuum treatment was done by vacuum infiltration (VI) method using 4 liters of 1% calcium hypochlorite, as described hereafter. The vacuum was applied while seeds were located in a perforated basket above the disinfectant solution in a closed chamber. A vacuum pressure was applied at maximal reachable vacuum pressure of about 975-985 mbar, followed by submerging the seeds into the solution and releasing the vacuum. Vacuum/de-vacuum cycles were repeated 4 times and at the end, all the seeds sunk. The seeds were collected, rinsed for 5 minutes and dried. Soaking treatment was done in the same solution for one hour after VI treatment or without VI treatment.
Clavibacter michiganensis subsp. michiganensis infection results were obtained by using the “method for the detection of Clavibacter michiganensis subsp. michiganensis on tomato seed” according to the International Seed Federation (ISF) Manual of Seed Health Methods, as can be found in the internet site: http://www.worldseed.org/isf/ishi_vegetable.html.

tomato seeds = test: Germination and transplant tests of treated tomato seeds (AOSA, Example 8); type: in vivo; settings: 1% Ca(ClO)2; for UNIF (Uniform Transplants) / UT (Useable Transplants): trays in a greenhouse
Description: as §1
The germination tests have been done according to the Association of Official Seed Analysts (AOSA) (http://www.aosaseed.com/).

CGMMV = settings: Tri Sodium Phosphate 10%, negative control 0.13
Method: In this case, cucumber seeds have been obtained from a commercial seed lot, naturally infected by CGMMV in the production field.
The seeds were disinfected by standard method and by vacuum infiltration method. In this case, vacuum is applied at maximal pressure of 975-985 mbar from the beginning. […] The vacuum cycles continue until floating seeds are no longer sinking. The floating seeds are then removed and discarded. This process takes 15-20 minutes.
In this case two chemicals were used.
We also tested the effect of different concentration of Na-Dichloroisocyanurate applied by vacuum infiltration on CGMMV and germination (table II) treatment E is untreated control; treatment F is vacuum infiltration of Na-Dichloroisocyanurate 0.75%; treatment G is vacuum infiltration of Na-Dichloroisocyanurate 1.5% and treatment H is vacuum infiltration of Na-Dich loroisocyanurate 2.0%.
CGMMV was tested by ELISA assay according to method 7-026 of the international rules for seed testing annex to chapter 7: seed health testing methods; International Seed Testing Association, Zurich, Switzerland, 2010.

cucumber seeds = settings: Tri Sodium Phosphate 10%
Method: The germination test was performed according to Annex to chapter 5, International Rules for Seed Testing, International Seed Testing Association, Zurich, Switzerland, 1996.

Acidovorax citrulli = settings: cited from earlier work; for Eradication of seed borne Acidovorax citrulli inoculum: chemical seed treatment of infected seeds (Dutta et al. 2012)

Structure (SMILES): [Ca+2].[O-]Cl.[O-]Cl [Ca(ClO)2, calcium hypochlorite]
- CMM infection results ([1]; 1 hr soak alone): Positive
- CMM infection results ([1]; VI alone): Negative
- CMM infection results ([1]; VI then 1 hr soak): Negative
- EN (Energy, early germination counts on Day 5) (tomato seeds; 1 hr soak alone): 98
- OG (Optimum Germination, counted on Day 14) (tomato seeds; 1 hr soak alone): 98
- UNIF (Uniform Transplants) (tomato seeds; 1 hr soak alone): 92
- UT (Useable Transplants) (tomato seeds; 1 hr soak alone): 95
- EN (Energy, early germination counts on Day 5) (tomato seeds; VI alone): 96
- OG (Optimum Germination, counted on Day 14) (tomato seeds; VI alone): 96
- UNIF (Uniform Transplants) (tomato seeds; VI alone): 91
- UT (Useable Transplants) (tomato seeds; VI alone): 94
- EN (Energy, early germination counts on Day 5) (tomato seeds; VI then 1 hr soak): 99
- OG (Optimum Germination, counted on Day 14) (tomato seeds; VI then 1 hr soak): 99
- UNIF (Uniform Transplants) (tomato seeds; VI then 1 hr soak): 89
- UT (Useable Transplants) (tomato seeds; VI then 1 hr soak): 92

Structure (SMILES): O=P([O-])([O-])[O-].[Na+].[Na+].[Na+] [Tri Sodium Phosphate]
- ELISA assay result (rate of extinction at A405) (CGMMV; standard disinfection): 0.34
- ELISA assay result (rate of extinction at A405) (CGMMV; vacuum infiltration): 0.19
- Germination % (cucumber seeds; standard disinfection): 100%
- Germination % (cucumber seeds; vacuum infiltration): 100%

Structure (SMILES): Cl [hydrochloric acid]
- Eradication of seed borne Acidovorax citrulli inoculum (Acidovorax citrulli): generally fail to eradicate the bacterium from the infected seeds
- BFB seedling transmission (Acidovorax citrulli; in vivo): significantly reduce BFB seedling transmission

Structure (SMILES): CC(=O)OO [peroxyacetic acid]
- Eradication of seed borne Acidovorax citrulli inoculum (Acidovorax citrulli): generally fail to eradicate the bacterium from the infected seeds
- BFB seedling transmission (Acidovorax citrulli; seed treatment (Walcott 2005)): significantly reduce BFB seedling transmission

Structure (SMILES): OCl [sodium hypochlorite]
- Eradication of seed borne Acidovorax citrulli inoculum (Acidovorax citrulli): generally fail to eradicate the bacterium from the infected seeds
- BFB seedling transmission (Acidovorax citrulli; seed treatment (Walcott 2005)): significantly reduce BFB seedling transmission
